# Patent US12528761B2, “Thyromimetics” (Autobahn Therapeutics, Inc., priority 2020, dated 2026)
# Read-outs that look alike come from different tables or passages of the source.
# Key:
# TRα = target: T1, TRα (Homo sapiens, UniProt P10827); assay: TR reporter-gene assay (Gal4 DBD hybrid, luciferase), TRα; assay type: cell-based
# T1 construct: expressed in transfected cells; host or cells: HEK293
# T1 sequence (P10827 1-410 isoform P10827-2): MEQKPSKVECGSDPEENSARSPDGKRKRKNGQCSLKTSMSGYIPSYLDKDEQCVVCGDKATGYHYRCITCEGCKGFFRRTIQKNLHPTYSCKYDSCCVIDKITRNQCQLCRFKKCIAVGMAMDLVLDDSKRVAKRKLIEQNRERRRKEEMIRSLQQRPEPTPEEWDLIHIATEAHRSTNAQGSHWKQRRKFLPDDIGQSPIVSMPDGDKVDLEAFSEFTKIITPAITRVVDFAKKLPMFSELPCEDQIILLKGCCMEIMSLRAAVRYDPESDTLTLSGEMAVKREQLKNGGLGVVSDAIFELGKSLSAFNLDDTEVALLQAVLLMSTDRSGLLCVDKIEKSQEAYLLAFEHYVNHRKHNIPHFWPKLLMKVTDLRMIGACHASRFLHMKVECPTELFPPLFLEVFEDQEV
# Method: (§1) Compounds were tested for thyroid-hormone receptor activity using TR reporter-gene assays. Reporter cells used in the assays express a TR-receptor hybrid (either TRα or TRβ) in which the native N-terminal DNA binding domain (DBD) has been replaced with that of the yeast Gal4 DBD. The reporter gene, firefly luciferase, is functionally linked to the Gal4 upstream activation sequence (UAS). Both cell lines were derived from human embryonic kidney (HEK293).
# (§2) Step 1: A suspension of reporter cells was prepared in cell recovery medium containing 10% charcoal-stripped FBS, and dispensed into assay plates. The plates were pre-incubated for 6 hours in a cell culture incubator (37° C./5% CO2/85% humidity).
# (§3) These intermediate stocks were subsequently diluted directly into compound screening medium containing 10% charcoal-stripped FBS to generate “2×-concentration” treatment media (containing 0.2, 0.4 or 0.8% DMSO).
# (§4) Step 3: At the end of the pre-incubation period, culture media were discarded from the assay plates, and all wells received 100 μl of compound screening medium. 100 μl of each of the previously prepared “2×-concentration” treatment media were dispensed into duplicate assay wells, thereby achieving the desired final treatment concentrations. The final concentration of DMSO in all assay wells was 0.1, 0.2 or 0.4%. Assay plates were incubated for 24 hr in a cell culture incubator (37° C./5% CO2/85% humidity).
# (§5) Step 4: At the 24 h assay endpoint, treatment media were discarded and 100 µl/well of luciferase detection reagent was added. Relative luminometer units (RLUs) were quantified from each assay well.
# TRβ = target: T2, TRβ (Homo sapiens, UniProt P10828); assay: TR reporter-gene assay (Gal4 DBD hybrid, luciferase), TRβ; assay type: cell-based; settings: for T3-SI (selectivity index, EC50 (TRα)/EC50 (TRβ)): class symbols
# T2 construct: expressed in transfected cells; host or cells: HEK293
# T2 sequence (P10828 217-461 limits assumed): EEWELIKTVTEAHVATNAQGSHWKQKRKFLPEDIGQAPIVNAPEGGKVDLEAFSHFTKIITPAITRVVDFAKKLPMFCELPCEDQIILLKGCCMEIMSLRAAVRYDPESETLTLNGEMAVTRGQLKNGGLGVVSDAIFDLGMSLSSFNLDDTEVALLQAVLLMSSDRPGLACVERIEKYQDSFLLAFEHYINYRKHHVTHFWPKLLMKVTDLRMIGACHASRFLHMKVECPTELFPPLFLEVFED
# Method: as §1, §2, §3, §4, §5
# [1] = HEK293-derived reporter cells, 24 hr treatment, read-out: TRα EC50
# [2] = HEK293-derived reporter cells, 24 hr treatment, read-out: TRβ EC50
Compound,EC50 (TRα; [1]) [µM],EC50 (TRβ; [2]) [µM],"T3-SI (selectivity index, EC50 (TRα)/EC50 (TRβ)) (TRβ)",EC50 (TRα) [µM],EC50 (TRβ) [µM]
"CC(C)c1cc(Cc2c(Cl)cc(NCCC(=O)O)cc2Cl)ccc1O [Compound 103, 3-((3,5-dichloro-4-(4-hydroxy-3-isopropylbenzyl)phenyl)amino)propanoic acid]",0.01 to 0.1,0.01 to 0.1,++ (3× < T3-SI ≤ 30×),–,–
"CC(C)c1c(O)ccc(Cc2c(Cl)cc(CNCC(=O)O)cc2Cl)c1F [Compound 110, (3,5-dichloro-4-(2-fluoro-4-hydroxy-3-isopropylbenzyl)benzyl)glycine]",0.01 to 0.1,0.1 to 1,+ (T3-SI ≤ 3×),–,–
"CC(C)c1cc(Cc2c(Cl)cc(N(C)CC(=O)O)cc2Cl)ccc1O [Compound 148, N-(3,5-dichloro-4-(4-hydroxy-3-isopropylbenzyl)phenyl)-N-methylglycine]",> 1,> 1,+ (T3-SI ≤ 3×),–,–
"Cc1cc(CC(=O)O)cc(C)c1Cc1ccc(O)c(C(C)c2ccc(F)cc2)c1 (stereo not shown) [Compound 2, 2-(4-(3-(1-(4-fluorophenyl)ethyl)-4-hydroxybenzyl)-3,5-dimethylphenyl)acetic acid]",0.1 to 1,0.01 to 0.1,++ (3× < T3-SI ≤ 30×),–,–
"CC(C)c1c(O)ccc(Cc2c(Cl)cc(CNCC(=O)O)c(F)c2Cl)c1F [Compound 153, (3,5-dichloro-2-fluoro-4-(2-fluoro-4-hydroxy-3-isopropylbenzyl)benzyl)glycine]",0.01 to 0.1,0.01 to 0.1,++ (3× < T3-SI ≤ 30×),–,–
"CC(C)c1cc(Cc2c(Cl)cc(CNCC(=O)O)cc2Cl)ccc1O [Compound 30, (3,5-dichloro-4-(4-hydroxy-3-isopropylbenzyl)benzyl)glycine]",0.1 to 1,0.1 to 1,+ (T3-SI ≤ 3×),–,–
"CC(=O)NOCc1cc(Cl)c(Cc2ccc(O)c(C(C)C)c2F)c(Cl)c1 [Compound 211, N-((3,5-dichloro-4-(2-fluoro-4-hydroxy-3-isopropylbenzyl)benzyl)oxy)acetamide]",0.1 to 1,–,–,–,–
"CC(C)c1c(O)ccc(Cc2c(Cl)cc(NC(=O)C(=O)O)cc2Cl)c1F [Compound 63, 2-((3,5-dichloro-4-(2-fluoro-4-hydroxy-3-isopropylbenzyl)phenyl)amino)-2-oxoacetic acid]",–,–,++ (3× < T3-SI ≤ 30×),–,–
"CNC(=O)C(F)(F)Oc1cc(Cl)c(Cc2ccc(O)c(C(C)C)c2)c(Cl)c1 [Compound 84, 2-(3,5-dichloro-4-(4-hydroxy-3-isopropylbenzyl)phenoxy)-2,2-difluoro-N-methylacetamide]",0.1 to 1,0.1 to 1,+ (T3-SI ≤ 3×),–,–
"CC(C)c1c(O)ccc(Cc2c(Cl)cc(NCC(=O)O)c(F)c2Cl)c1F [Compound 78, (3,5-dichloro-2-fluoro-4-(2-fluoro-4-hydroxy-3-isopropylbenzyl)phenyl)glycine]",< 0.01,< 0.01,++ (3× < T3-SI ≤ 30×),–,–
"CON(C)C(=O)CCc1cc(Cl)c(Cc2ccc(O)c(C(C)C)c2F)c(Cl)c1 [Compound 107, 3-(3,5-dichloro-4-(2-fluoro-4-hydroxy-3-isopropylbenzyl)phenyl)-N-methoxy-N-methylpropanamide]",0.1 to 1,0.1 to 1,++ (3× < T3-SI ≤ 30×),–,–
"CC(c1ccc(F)cc1)c1c(O)ccc(Cc2c(Cl)cc(NCC(=O)O)cc2Cl)c1F (stereo not shown) [Compound 50, (3,5-dichloro-4-(2-fluoro-3-(1-(4-fluorophenyl)ethyl)-4-hydroxybenzyl)phenyl) glycine]",0.01 to 0.1,< 0.01,++ (3× < T3-SI ≤ 30×),–,–
"Cc1cc([S+]([O-])CC(=O)O)cc(Cl)c1Cc1ccc(O)c(C(C)C)c1 (stereo not shown) [Compound 244, 2-((3-chloro-4-(4-hydroxy-3-isopropylbenzyl)-5-methylphenyl)sulfinyl)acetic acid]",> 1,> 1,++ (3× < T3-SI ≤ 30×),–,–
"Cc1cc(C[S+]([O-])CC(=O)O)cc(Cl)c1Cc1ccc(O)c(C(C)C)c1 (stereo not shown) [Compound 246, 2-((3-chloro-4-(4-hydroxy-3-isopropylbenzyl)-5-methylbenzyl)sulfinyl)acetic acid]",> 1,> 1,++ (3× < T3-SI ≤ 30×),–,–
"Cc1cc(/C=C/C(=O)O)cc(Cl)c1Cc1ccc(O)c(C(C)C)c1F [Compound 250, (E)-3-(3-chloro-4-(2-fluoro-4-hydroxy-3-isopropylbenzyl)-5-methylphenyl)acrylic acid]",0.01 to 0.1,0.01 to 0.1,+ (T3-SI ≤ 3×),–,–
"O=C(O)Cc1cc(Cl)c(Cc2ccc(O)c(CN3CCCC3=O)c2)c(Cl)c1 [Compound 138, 2-(3,5-dichloro-4-(4-hydroxy-3-((2-oxopyrrolidin-1-yl)methyl)benzyl)phenyl)acetic acid]",> 1,–,–,–,–
"Cc1c(F)c(NCC(=O)O)cc(Cl)c1Cc1ccc(O)c(C(C)C)c1 [Compound 223, (5-chloro-2-fluoro-4-(4-hydroxy-3-isopropylbenzyl)-3-methylphenyl)glycine]",0.01 to 0.1,0.01 to 0.1,++ (3× < T3-SI ≤ 30×),–,–
"CC(C)c1cc(Cc2c(Cl)cc(C(CC(=O)O)C(=O)O)cc2Cl)ccc1O (stereo not shown) [Compound 142, 2-(3,5-dichloro-4-(4-hydroxy-3-isopropylbenzyl)phenyl)succinic acid]",> 1,–,–,–,–
"CC(c1ccc(F)cc1)c1c(O)ccc(Cc2c(Cl)cc(CC(=O)O)cc2Cl)c1F (stereo not shown) [Compound 37, 2-(3,5-dichloro-4-(2-fluoro-3-(1-(4-fluorophenyl)ethyl)-4-hydroxybenzyl)phenyl)acetic acid]",0.01 to 0.1,< 0.01,++ (3× < T3-SI ≤ 30×),–,–
"Cc1cc(CNCC(=O)O)cc(Cl)c1Cc1ccc(O)c(C(C)C)c1 [Compound 251, (3-chloro-4-(4-hydroxy-3-isopropylbenzyl)-5-methylbenzyl)glycine]",0.1 to 1,> 1,+ (T3-SI ≤ 3×),–,–
"C[Si](C)(C)c1c(O)ccc(Cc2c(Cl)cc(CC(=O)O)c(F)c2Cl)c1F [Compound 151, 2-(3,5-dichloro-2-fluoro-4-(2-fluoro-4-hydroxy-3-(trimethylsilyl)benzyl)phenyl)acetic acid]",–,–,++ (3× < T3-SI ≤ 30×),0.1 to 1,0.1 to 1
"CC(C)c1cc(Cc2c(Cl)cc(CSCC(=O)O)cc2Cl)ccc1O [Compound 95, 2-((3,5-dichloro-4-(4-hydroxy-3-isopropylbenzyl)benzyl)thio)acetic acid]",0.01 to 0.1,0.1 to 1,++ (3× < T3-SI ≤ 30×),–,–
"CC(C)c1c(O)ccc(Cc2c(Cl)cc(SCC(=O)O)cc2Cl)c1F [Compound 203, 2-((3,5-dichloro-4-(2-fluoro-4-hydroxy-3-isopropylbenzyl)phenyl)thio)acetic acid]",0.01 to 0.1,0.01 to 0.1,++ (3× < T3-SI ≤ 30×),–,–
"CC(C)c1c(O)ccc(Cc2c(Cl)cc(N(C)CC(=O)O)cc2Cl)c1F [Compound 140, N-(3,5-dichloro-4-(2-fluoro-4-hydroxy-3-isopropylbenzyl)phenyl)-N-methylglycine]",> 1,–,–,–,–
"O=C(O)Cc1cc(Cl)c(Cc2ccc(O)c(C(=O)N3CCCCC3)c2)c(Cl)c1 [Compound 137, 2-(3,5-dichloro-4-(4-hydroxy-3-(piperidine-1-carbonyl)benzyl)phenyl)acetic acid]",–,> 1,–,–,–
"O=C(O)CNc1cc(Cl)c(Cc2ccc(O)c(-c3cc(OC(F)F)ccc3F)c2F)c(Cl)c1 [Compound 139, (3,5-dichloro-4-((5′-(difluoromethoxy)-2,2′-difluoro-6-hydroxy-[1,1′-biphenyl]-3-yl)methyl)phenyl)glycine]",0.01 to 0.1,–,–,–,–
